In assay [1] the test system is Human gastric cancer cells (MKN-45). The experiment in a line: Inhibitory activity against the proliferation of human gastric cancer cells (MKN-45). The conditions noted are these: 72 h, read-out: IC50 (concentration necessary to inhibit the cell proliferation by 50%), MKN-45 cells, 1% FBS-containing RPMI1640, 3 days, Cell Counting Kit-8. It counts as cell-based. How it is done: Human gastric cancer cells (MKN-45) were suspended in a 1% FBS-containing RPMI1640 medium (purchased from Sigma). The cell suspension (1×10^4 cells/ml) was added in a 96-well plate for cell culture (purchased from NUNC, Production No. 167008) at 0.1 ml/well, and then cultured in a 5% CO2 incubator (37° C.) overnight. After the culture, each well was supplied with 0.1 ml of a test substance diluted with a 1% FBS-containing RPMI1640 medium, followed by culturing in a 5% CO2 incubator (37° C.) for 3 days. After the culture, each well was supplied with 10 μl of Cell Counting Kit-8 (purchased from DOJINDO, Production No. 343-07623), followed by incubation in a 5% CO2 incubator (37° C.) for about 1.5 hrs. After the incubation, using the Plate Reader MTP-500 (Corona Electric), the absorbance of each well was determined at a measurement wavelength of 450 nm and a reference wavelength of 660 nm.

The target in assay [2] is T1, HGFR (Homo sapiens, UniProt P08581). The experiment in a line: Inhibitory activity against the HGFR autophosphorylation using ELISA. The assay is classed as cell-based. More on the design: endogenous in cells; host or cells: MKN-45 human gastric cancer cells. The conditions noted are these: MKN-45 cells, test substance 1 hr, cell extract. How it is done: Human gastric cancer cells (MKN-45) were suspended in a 1% FBS-containing RPMI1640 medium (purchased from Sigma). […] After the culture, from each well was removed the supernatant, followed by adding 0.05 ml of a 1% FBS-containing RPMI1640 medium. Then, the well was supplied with 0.05 ml of the test substance dissolved in dimethyl sulfoxide (diluted with a 1% FBS-containing RPMI1640 medium), followed by culturing in a 5% CO2 incubator (37° C.) for 1 hr. From each well was removed the supernatant, and each well was washed with 150 μl of PBS, followed by adding 100 μl of a lysis buffer (50 mM Hepes (pH 7.4), 150 mM NaCl, 10% (v/v) glycerol, 1% Triton X-100, 1.5 mM MgCl2, 1 mM EDTA (pH 8.0), 100 mM NaF, 1 mM PMSF, 10 μg/ml Aprotinin, 50 μg/ml Leupeptin, 1 μg/ml Pepstatin A and 1 mM Na3VO4). The plate was shaken at 4° C. for 1 hr to prepare the cell extract.
To a 96-well plate for ELISA (purchased from COSTAR, Production No. 3369) was added 50 μl of 60 mM bicarbonate buffer (pH 9.6) containing 50 μg/ml of an anti-phosphotyrosine antibody (PY20, purchased from Transduction Laboratory, Production No. P-11120). The plate was incubated at 4° C. overnight.
Each well of the plate prepared in 2. was washed three times with 200 μl of PBS, and supplied with 150 μl of 3% BSA/PBS, followed by incubating at room temperature for 2 hrs. Each well was washed three times with 200 μl of PBS, and supplied with 50 μl of the above cell extract, followed by incubating at 4° C. overnight. After the incubation, each well was washed three times with 250 μl of a washing solution (0.1% BSA, 20 mM Tris-HCl (pH 7.6), 137 mM NaCl, and 0.05% Tween-20), and supplied with 70 μl of anti-HGFR antibody (h-Met(C-12), purchased from Santa Cruz, Production No. sc-10) 2,000-fold diluted with a reaction solution (1% BSA, 20 mM Tris-HCl (pH 7.6), 137 mM NaCl and 0.05% Tween-20), followed by incubating at room temperature for 1 hr. The well was washed three times with 250 μl of the washing solution, and supplied with 70 μl of peroxidase-labelled anti-rabbit IgG antibody (purchased from Cell Signaling, Production No. 7074) 2,000-fold diluted with the reaction solution, followed by incubating at room temperature for 1 hr. […] Each well was supplied with 70 μl of 1 M phosphoric acid, and using the Plate Reader MTP-500 (Corona Electric), the absorbance of the well was instantly determined at a measurement wavelength of 450 nm. While defining the absorbance of a well supplied with the cell extract having no test substance as 100% HGFR autophosphorylation activity, and the absorbance of a well supplied with 50 μl of the lysis buffer as 0% HGFR autophosphorylation activity, the HGFR autophosphorylation activity (%) was calculated for each well.
Target sequence in this assay (P08581 25-1390): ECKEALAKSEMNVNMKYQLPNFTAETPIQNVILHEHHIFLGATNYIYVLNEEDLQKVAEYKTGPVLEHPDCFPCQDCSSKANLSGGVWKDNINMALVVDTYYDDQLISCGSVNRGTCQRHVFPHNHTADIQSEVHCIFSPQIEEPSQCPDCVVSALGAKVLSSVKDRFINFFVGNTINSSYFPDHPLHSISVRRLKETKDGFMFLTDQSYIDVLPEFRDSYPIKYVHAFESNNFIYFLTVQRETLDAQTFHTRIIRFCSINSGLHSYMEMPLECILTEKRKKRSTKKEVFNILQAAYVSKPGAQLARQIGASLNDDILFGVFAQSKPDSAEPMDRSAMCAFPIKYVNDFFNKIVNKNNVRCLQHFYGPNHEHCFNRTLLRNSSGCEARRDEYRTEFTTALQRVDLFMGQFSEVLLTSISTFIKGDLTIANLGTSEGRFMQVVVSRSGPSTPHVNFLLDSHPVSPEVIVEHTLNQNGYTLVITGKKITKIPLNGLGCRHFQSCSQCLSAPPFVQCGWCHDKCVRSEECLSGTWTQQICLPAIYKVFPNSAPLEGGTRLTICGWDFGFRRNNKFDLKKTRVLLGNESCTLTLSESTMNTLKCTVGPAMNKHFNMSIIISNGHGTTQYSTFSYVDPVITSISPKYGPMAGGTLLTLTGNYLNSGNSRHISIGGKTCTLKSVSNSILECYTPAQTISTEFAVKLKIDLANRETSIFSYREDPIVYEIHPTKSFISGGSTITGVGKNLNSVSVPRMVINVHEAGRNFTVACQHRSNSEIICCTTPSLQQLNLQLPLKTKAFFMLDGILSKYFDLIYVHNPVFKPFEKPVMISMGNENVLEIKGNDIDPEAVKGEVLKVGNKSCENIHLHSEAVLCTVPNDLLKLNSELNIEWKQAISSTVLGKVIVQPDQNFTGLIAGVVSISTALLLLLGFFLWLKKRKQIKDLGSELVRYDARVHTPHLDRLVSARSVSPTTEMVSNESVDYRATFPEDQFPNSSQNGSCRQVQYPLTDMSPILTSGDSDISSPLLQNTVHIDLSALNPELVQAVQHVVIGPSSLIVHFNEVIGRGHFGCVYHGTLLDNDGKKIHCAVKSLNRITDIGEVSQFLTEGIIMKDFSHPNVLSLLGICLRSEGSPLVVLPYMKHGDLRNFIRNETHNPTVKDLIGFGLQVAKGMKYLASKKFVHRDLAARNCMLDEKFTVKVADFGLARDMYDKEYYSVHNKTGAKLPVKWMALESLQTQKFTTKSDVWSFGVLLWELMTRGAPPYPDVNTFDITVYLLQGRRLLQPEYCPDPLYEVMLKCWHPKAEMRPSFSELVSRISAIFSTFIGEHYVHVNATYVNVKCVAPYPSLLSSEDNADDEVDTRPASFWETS

In assay [3] the target is T1, HGFR. Nature of the assay: Inhibitory activity against HGFR tyrosine kinase activity (HTRF). Also noted: His6-HGFR, the HGFR cytoplasmic domain fused with six histidine at the N terminus; made in house; host or cells: Sf9 insect cells (baculovirus, pFastBac-HT). The following applies: His6-HGFR cytoplasmic domain, biotin-poly(GT) substrate, ATP, 30° C. for 10 min. It counts as biochemical. An excerpt: The DNA fragment was isolated from the human placental cDNA library (purchased from Clontech) by PCR (TaKaRa Ex Taq™ Kit, purchased from TaKaRa) using two kinds of primers (SEQ ID NO: 1,5′-[…]-3′ and SEQ ID NO: 2,5′-[…]-3′, purchased from Invitrogen). The DNA fragment was cloned into a baculovirus transplace vector (pFastBac™-HT (purchased from GIBCO BRL)) to produce a recombinant construct. […] EGFR was purchased from Sigma (Production No. E-2645).
To the suspension of Sf9 cells (3×10^8 cells) in SF-900II medium (purchased from Invitrogen) containing 2% FBS was added a solution of HGFR transfected baculovirus above (4 ml), followed by a shaking culture at 27° C. for 48 hrs. The cells infected with the HGFR transfected baculovirus were centrifuged at 1,000 rpm, 4° C. for 5 min to remove the supernatant. The precipitated infected cells were suspended in 80 ml of ice-cold PBS, and centrifuged at 1,000 rpm, 4° C. for 5 min to remove the supernatant. The precipitated infected cells were suspended in 40 ml of ice-cold Lysis Buffer (50 mM Tris-HCl (pH 8.5), 5 mM 2-mercaptoethanol, 100 mM KCl, 1 mM PMSF and 1% (v/v) NP-40). The suspension was centrifuged at 12,000 rpm, 4° C. for 30 min to provide a supernatant.
The supernatant was loaded onto an Ni-NTA agarose column (3 ml, purchased from Qiagen) equilibrated with 30 ml of Buffer A (20 mM Tris-HCl (pH 8.5), 5 mM 2-mercaptoethanol, 500 mM KCl, 20 mM imidazole and 10% (v/v) glycerol). The column was washed with 30 ml of Buffer A, 6 ml of Buffer B (20 mM Tris-HCl (pH 8.5), 5 mM 2-mercaptoethanol, 1 M KCl, and 10% (v/v) glycerol) and 6 ml of Buffer A in this order. Then, the column was eluted with 6 ml of Buffer C (20 mM Tris-HCl (pH 8.5), 5 mM 2-mercaptoethanol, 100 mM KCl, 100 mM imidazole, and 10% (v/v) glycerol) to provide a fraction. The fraction was entrapped in a dialysis membrane (purchased from Spectrum Laboratories), dialyzed at 4° C. overnight with 1 L of dialysis buffer (20 mM Tris-HCl (pH 7.5), 10% (v/v) glycerol, 1 mM dithiothreitol, 0.1 mM Na3VO4 and 0.1 mM EGTA), and stored at −80° C. until used. […] The VEGFR2 cytoplasmic domain, the FGFR1 cytoplasmic domain, and the PDGFRβ cytoplasmic domain were fused with six histidine at the N terminus by the similar method to produce respective recombinant proteins (His6-VEGFR2, His6-FGFR1, and His6-PDGFRβ).
The tyrosine-phosphorylated biotin-poly(GT) was detected using the Homogenous Time-Resolved Fluorescence (HTRF) method (Analytical Biochemistry, 269, 94-104, 1999).
Target sequence in this assay (P08581 956-1390 limits assumed): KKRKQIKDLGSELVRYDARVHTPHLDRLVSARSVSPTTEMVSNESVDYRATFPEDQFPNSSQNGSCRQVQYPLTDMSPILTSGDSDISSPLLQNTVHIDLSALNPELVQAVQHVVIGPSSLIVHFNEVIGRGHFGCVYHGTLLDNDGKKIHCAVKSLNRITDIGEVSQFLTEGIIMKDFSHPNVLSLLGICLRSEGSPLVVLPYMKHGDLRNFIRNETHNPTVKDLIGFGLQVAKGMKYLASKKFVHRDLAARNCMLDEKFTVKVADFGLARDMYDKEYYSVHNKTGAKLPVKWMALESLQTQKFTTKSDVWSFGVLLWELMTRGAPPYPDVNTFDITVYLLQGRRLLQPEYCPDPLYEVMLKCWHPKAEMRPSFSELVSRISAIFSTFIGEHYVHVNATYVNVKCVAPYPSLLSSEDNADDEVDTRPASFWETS
Background: In TR-FRET formats the signal depends on donor and acceptor labels being close together.

IC50 data for five compounds are collected here from patent US7790885B2, “Process for preparing phenoxypyridine derivatives” (Eisai R&D Management Co., Ltd., priority 2006, dated 2010).

For `CN1CCN(C2CCN(C(=O)Nc3cc(Oc4ccc(NC(=O)C5(C(=O)Nc6ccc(F)cc6)CC5)c(F)c4)ccn3)CC2)CC1` [Example 9, N-(2-Fluoro-4-{[2-({[4-(4-methylpiperazin-1-yl)piperidin-1-yl]carbonyl}amino)pyridin-4-yl]oxy}phenyl)-N′-(4-fluorophenyl)cyclopropane-1,1-dicarboxamide], the IC50 in assay [1] was 17 nM.
As for `O=C(Nc1cc(Oc2cc(F)c(NC(=O)C3(C(=O)Nc4ccc(F)cc4)CC3)cc2F)ccn1)N1CC(O)C1` [Example 16, N-{2,5-Difluoro-4-[(2-{[(3-hydroxyazetidin-1-yl)carbonyl]amino}pyridin-4-yl)oxy]phenyl}-N′-(4-fluorophenyl)cyclopropane-1,1-dicarboxamide], the IC50 in assay [1] was found to be 5 nM; against HGFR [2], 8.4 nM; against HGFR [3] it was 4 nM.
Take `CN1CCC(N(C)C(=O)Nc2cc(Oc3cc(F)c(NC(=O)C4(C(=O)Nc5ccc(F)cc5)CC4)cc3F)ccn2)CC1` [Example 19]: the figures for the IC50 (in assay [1]; at HGFR [2]; on HGFR [3]) were 4.9 nM, 11 nM and 49 nM, respectively.
Taken in the same sequence, the figures for `O=C(Nc1cc(Oc2cc(F)c(NC(=O)C3(C(=O)Nc4ccc(F)cc4)CC3)cc2F)ccn1)N1CC[C@H](O)C1` [Example 22, N-{2,5-Difluoro-4-[(2-{[((S)-3-hydroxypyrrolidin-1-yl)carbonyl]amino}pyridin-4-yl)oxy]phenyl}-N′-(4-fluorophenyl)cyclopropane-1,1-dicarboxamide] were 2.4 nM, 4.5 nM and 16 nM.
Turning to `O=C(Nc1cc(Oc2cc(F)c(NC(=O)C3(C(=O)Nc4ccc(F)cc4)CC3)cc2F)ccn1)N1CC[C@@H](O)C1` [Example 25, N-{2,5-Difluoro-4-[(2-{[((R)-3-hydroxypyrrolidin-1-yl)carbonyl]amino}pyridin-4-yl)oxy]phenyl}-N′-(4-fluorophenyl)cyclopropane-1,1-dicarboxamide], the IC50 was determined as 2.2 nM in assay [1], 3.4 nM on HGFR [2] and 10 nM against HGFR [3].
